Laboratory results as given in ChEMBL document CHEMBL4765414, “Rhodamine B-based fluorescent probes for molecular mechanism study of the anti-influenza activity of pentacyclic triterpenes” (Eur J Med Chem, 2020).
Active and inactive are the calls of the source. The calls are words filed in the database; no cut-off is given here.

How the values were obtained:
[1] = Binding affinity to recombinant influenza A virus A/WSN/33(H1N1) hemagglutin assessed as dissociation constant by surface plasmon resonance assay; design: species or system Influenza A virus (A/WSN/1933(H1N1))
[2] = tested on: Influenza A virus (A/WSN/1933(H1N1)); test: Binding affinity to recombinant influenza A virus A/WSN/33(H1N1) hemagglutin assessed as association constant by surface plasmon resonance assay
[3] = tested on: Influenza A virus; test: Antiviral activity against Influenza A virus A/WSN/33(H1N1) infected in MDCK cells assessed as inhibition of virus-induced cytopathic effects at 50 uM after 36 hrs by microscopic analysis; format: functional, A/WSN/1933(H1N1); design: scale not given: the % may be the effect or the level left
[4] = Binding affinity to recombinant influenza A virus A/WSN/33(H1N1) hemagglutin by surface plasmon resonance assay; design: species or system Influenza A virus (A/WSN/1933(H1N1))
[5] = tested on: MDCK; test: Cytotoxicity against dog MDCK cells assessed as reduction in cell viability at 50 uM measured after 36 hrs by Celltiter-Glo luminescence assay; format: cell-based, Canis lupus familiaris
[6] = tested on: Influenza A virus; test: Antiviral activity against Influenza A virus A/WSN/33(H1N1) infected in MDCK cells assessed as inhibition of viral replication measured after 36 hrs by CellTiter-Glo assay; format: functional, organism-based; conditions: A/WSN/1933(H1N1)
[7] = Cytotoxicity against dog MDCK cells assessed as reduction in cell viability measured after 36 hrs by Celltiter-Glo luminescence assay; format: cell-based, Canis lupus familiaris
[8] = Selectivity ratio of CC50 for MDCK cells to IC50 for Influenza A virus A/WSN/33(H1N1) infected in MDCK cells; format: toxicity, cell-based; conditions: dog, read-out: Ratio CC50/IC50
[9] = tested on: Influenza A virus; test: Antiviral activity against Influenza A virus A/WSN/33(H1N1) infected in MDCK cells assessed as inhibition of virus-induced cell death at 50 uM cotreated with virus and cells for 1 hrs and measured after 36 hrs; format: functional, A/WSN/1933(H1N1); design: scale not given: the % may be the effect or the level left; conditions: time 37 hrs
[10] = tested on: Influenza A virus; test: Antiviral activity against Influenza A virus A/WSN/33(H1N1) infected in MDCK cells assessed as inhibition of virus-induced cell death at 50 uM preincubated with cells for 30 mins followed by viral infection for 1 hr and measured after 36 hrs; format: functional, A/WSN/1933(H1N1); design: scale not given: the % may be the effect or the level left; conditions: time 2250 min, 37.5 h
[11] = tested on: Influenza A virus; test: Antiviral activity against Influenza A virus A/WSN/33(H1N1) infected in MDCK cells assessed as inhibition of virus-induced cell death at 50 uM preincubated with virus for 30 mins followed by cell infection for 1 hr and measured after 36 hrs; format: functional, A/WSN/1933(H1N1); design: scale not given: the % may be the effect or the level left; conditions: time 2250 min, 37.5 h
[12] = tested on: Erythrocyte; test: Inhibition of Influenza A virus A/WSN/33(H1N1) hemagglutinin assessed as inhibition of chicken erythrocytes hemagglutination upto 20 uM incubated for 30 mins; format: cell-based; conditions: Influenza A virus (A/WSN/1933(H1N1)), dose microM <=20, time 30.0 min
[13] = Drug localization in cell membrane of MDCK cells at 25 uM incubated for 1 to 3 hrs by DOI staining based confocal microscopy analysis; format: ADME, cell membranes, Canis lupus familiaris; conditions: dog, time 1-3 hrs
[14] = Drug localization in cytoplasm of MDCK cells at 25 uM incubated for 12 hrs by confocal microscopy analysis; format: ADME, subcellular, Canis lupus familiaris; conditions: dog
[15] = Stability of compound in dog MDCK cells after 36 hrs; format: ADME, cell-based, Canis lupus familiaris
[16] = Drug uptake in dog MDCK cells assessed as increase in red fluorescence at 25 uM incubated for 1 hr by flow cytometry analysis; format: ADME, cell-based, Canis lupus familiaris
[17] = Drug uptake in dog MDCK cells assessed as increase in red fluorescence at 25 uM incubated for 3 hrs by flow cytometry analysis; format: ADME, cell-based, Canis lupus familiaris
[18] = Drug uptake in dog MDCK cells assessed as increase in red fluorescence at 25 uM incubated for 36 hrs by flow cytometry analysis; format: ADME, cell-based, Canis lupus familiaris
[19] = tested on: Influenza A virus; test: Antiviral activity against Influenza A virus A/WSN/33(H1N1) infected in MDCK cells assessed as reduction in antiviral activity preincubated with cells for 3 hrs followed by viral infection; format: functional, A/WSN/1933(H1N1); design: scale not given: the % may be the effect or the level left
[20] = tested on: Influenza A virus; test: Antiviral activity against Influenza A virus A/WSN/33(H1N1) infected in MDCK cells preincubated with cells for 5 hrs followed by viral infection; format: functional, organism-based; conditions: A/WSN/1933(H1N1)
[21] = tested on: Influenza A virus; test: Antiviral activity against Influenza A virus A/WSN/33(H1N1) infected in MDCK cells preincubated with cells for 12 hrs followed by viral infection; format: functional, organism-based; conditions: A/WSN/1933(H1N1)
[22] = tested on: Influenza A virus; test: Antiviral activity against Influenza A virus A/WSN/33(H1N1) infected in MDCK cells assessed as inhibition of viral replication at 100 uM measured after 36 hrs by CellTiter-Glo assay; format: functional, organism-based; conditions: A/WSN/1933(H1N1)

C[C@H]1[C@H](C)CC[C@]2(C(=O)O)CC[C@]3(C)C(=CC[C@@H]4[C@@]5(C)CC[C@H](O)C(C)(C)[C@@H]5CC[C@]43C)[C@@H]12
Kd [1]: 7.1 10^-2/s
Ka [2]: 1.73 10^3/M.s
Activity [3]: 31%
Kd [4]: 41 µM

CC1(C)CC[C@]2(C(=O)O)CC[C@]3(C)C(=CC[C@@H]4[C@@]5(C)CC[C@H](O)C(C)(C)[C@@H]5CC[C@]43C)[C@H]2C1
Activity [3]: 17%

CCN(CC)c1ccc2c(c1)Oc1cc(N(CC)CC)ccc1C21c2ccccc2C(=O)N1CCNC(=O)[C@]12CC[C@@H](C)[C@H](C)[C@@H]1C1=CC[C@@H]3[C@@]4(C)CC[C@H](O)C(C)(C)[C@@H]4CC[C@@]3(C)[C@]1(C)CC2
Kd [1]: 4.14 10^-2/s
Ka [2]: 2.33 10^3/M.s
Activity [5]: Non-Toxic
IC50 [6]: 8.24 µM
CC50 at 36 h [7]: 368 µM
selectivity ratio [8]: 44.7
Activity [3]: >90%
Activity ([3]; A/WSN/1933(H1N1)): Active
Activity [9]: 91%
Activity [10]: 15%
Activity [11]: 95%
inhibition [12]: Active
Kd [4]: 17.8 µM
Drug uptake [13]: Active
Drug uptake [14]: Active
Stabilty [15]: Stable
Drug uptake [16]: 52.4%
Drug uptake [17]: 62.6%
Drug uptake [18]: 97.5%
Activity [19]: 25%
Activity [20]: inactive
Activity [21]: inactive

CCN(CC)c1ccc2c(c1)Oc1cc(N(CC)CC)ccc1C21c2ccccc2C(=O)N1CCNC(=O)[C@]12CCC(C)(C)C[C@@H]1C1=CC[C@@H]3[C@@]4(C)CC[C@H](O)C(C)(C)[C@@H]4CC[C@@]3(C)[C@]1(C)C[C@H]2O
Activity [5]: Non-Toxic
IC50 [6]: 13.3 µM
Activity [3]: >90%

CCN(CC)c1ccc2c(-c3ccccc3C(=O)O)c3ccc(=[N+](CC)CC)cc-3oc2c1 [RHODAMINE]
Activity [22]: inactive
IC50 [6]: > 100 µM

CCN(CC)c1ccc2c(c1)Oc1cc(N(CC)CC)ccc1C21c2ccccc2C(=O)N1CCNC(=O)[C@]12CCC(C)(C)C[C@@H]1C1=CC[C@@H]3[C@@]4(C)CC[C@H](O)C(C)(C)[C@@H]4CC[C@@]3(C)[C@]1(C)CC2
Activity [5]: Non-Toxic
IC50 [6]: 14.3 µM
Activity [3]: >90%

C=C(C)[C@@H]1CC[C@]2(C(=O)NCCN3C(=O)c4ccccc4C34c3ccc(N(CC)CC)cc3Oc3cc(N(CC)CC)ccc34)CC[C@]3(C)[C@H](CC[C@@H]4[C@@]5(C)CC[C@H](O)C(C)(C)[C@@H]5CC[C@]43C)[C@@H]12
Activity [5]: Non-Toxic
IC50 [6]: 8.36 µM
CC50 at 36 h [7]: 324 µM
selectivity ratio [8]: 38.8
